Assay results: ChEMBL document CHEMBL1131689, “Synthesis and evaluation of geldanamycin-estradiol hybrids” (Bioorg Med Chem Lett, 1999)

Legend:
Assay type in all cases: functional, cell-based
[1] = Inhibition of steady-state expression of ER in MCF-7 breast cancer cells; details: Homo sapiens, MCF7
[2] = Inhibition of steady-state expression of HER2 in MCF-7 breast cancer cells; details: Homo sapiens, MCF7
Heat shock protein HSP90 = Heat shock protein HSP90 (Homo sapiens, UniProt P07900+P08238); experiment: Inhibition of steady-state expression of Raf-1 in MCF-7 breast cancer cells; details: mcf7

SMILES: CO[C@@H]1/C=C\C=C(/C)C(=O)NC2=CC(=O)C(NCC#CC[C@@H]3C[C@H]4[C@@H]5CCc6cc(O)ccc6[C@H]5CC[C@]4(C)[C@H]3O)=C(C[C@H](C)C[C@@H](OC)[C@@H](O)[C@H](C)/C=C(\C)[C@H]1OC(N)=O)C2=O
- IC50 [1]: 220 nM
- IC50 [2]: 100 nM
- IC50 (Heat shock protein HSP90): 1500 nM

SMILES: CO[C@@H]1/C=C\C=C(/C)C(=O)NC2=CC(=O)C(NC/C=C/C[C@@H]3C[C@H]4[C@@H]5CCc6cc(O)ccc6[C@H]5CC[C@]4(C)[C@H]3O)=C(C[C@H](C)C[C@@H](OC)[C@@H](O)[C@H](C)/C=C(\C)[C@H]1OC(N)=O)C2=O
- IC50 [1]: 80 nM
- IC50 [2]: 100 nM
- IC50 (Heat shock protein HSP90): 1500 nM

SMILES: CO[C@@H]1/C=C\C=C(/C)C(=O)NC2=CC(=O)C(NCCCC[C@@H]3C[C@H]4[C@@H]5CCc6cc(O)ccc6[C@H]5CC[C@]4(C)[C@H]3O)=C(C[C@H](C)C[C@@H](OC)[C@@H](O)[C@H](C)/C=C(\C)[C@H]1OC(N)=O)C2=O
- IC50 [1]: > 2000 nM
- IC50 [2]: > 2000 nM
- IC50 (Heat shock protein HSP90): > 2000 nM

SMILES: CO[C@@H]1/C=C\C=C(/C)C(=O)NC2=CC(=O)C(NCCC[C@@H]3C[C@H]4[C@@H]5CCc6cc(O)ccc6[C@H]5CC[C@]4(C)[C@H]3O)=C(C[C@H](C)C[C@@H](OC)[C@@H](O)[C@H](C)/C=C(\C)[C@H]1OC(N)=O)C2=O
- IC50 [1]: > 2000 nM
- IC50 [2]: > 2000 nM
- IC50 (Heat shock protein HSP90): > 2000 nM
